Experimental data taken from PubChem BioAssay AID330 (DTP/NCI, 2004).
Several values for one entry are separate records, joined by “and”; a condition that tells them apart may be missing. Equal values may be shown once. Toxic doses and inconclusive results are not listed. Rule for the calls: active = survival T/C of 150% or more; inactive = T/C below 125% in these data.

Tested on: P388 leukemia ip, CD2F1 mice, survival T/C
Test: NCI In Vivo Anticancer Drug Screen. Data for tumor model P388 Leukemia (intraperitoneal) in CD2F1 (CDF1) mice
Details: endpoint: median survival time, higher = longer survival
Procedure, shortened: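 Mice carrying the transplanted tumor received test compound or vehicle. Survival was recorded in each group, and the value is the treated-group measurement divided by that of the vehicle-treated control group.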

[1] = dose: 60.0 mg/kg/injection, schedule: Q01DX005 (ip), vehicle: saline with Tween-80
[2] = dose: 240.0 mg/kg/injection, schedule: Q01DX005 (ip), vehicle: saline with Tween-80
[3] = dose: 25.0 mg/kg/injection, schedule: Q01DX009 (ip), vehicle: saline with Tween-80
[4] = dose: 50.0 mg/kg/injection, schedule: Q01DX009 (ip), vehicle: saline with Tween-80
[5] = dose: 100.0 mg/kg/injection, schedule: Q01DX009 (ip), vehicle: saline with Tween-80
[6] = dose: 50.0 mg/kg/injection, schedule: Q01DX005 (ip), vehicle: saline with Tween-80
[7] = dose: 100.0 mg/kg/injection, schedule: Q01DX005 (ip), vehicle: saline with Tween-80
[8] = dose: 200.0 mg/kg/injection, schedule: Q01DX005 (ip), vehicle: saline with Tween-80
[9] = dose: 15.0 mg/kg/injection, schedule: Q01DX005 (ip), vehicle: saline
[10] = dose: 30.0 mg/kg/injection, schedule: Q01DX005 (ip), vehicle: saline
[11] = dose: 60.0 mg/kg/injection, schedule: Q01DX005 (ip), vehicle: saline

Measured: T/C

CC12CCCCC1=CC(=O)CC2 (stereo not drawn)
inactive: dose: 12.5 mg/kg/injection, schedule: Q01DX009 (ip), vehicle: other 97 % of control | dose: 25.0 mg/kg/injection, schedule: Q01DX009 (ip), vehicle: other 100 % of control | dose: 25.0 mg/kg/injection, schedule: Q01DX009 (ip), vehicle: saline + Tween-80 + alcohol 100 % of control | dose: 50.0 mg/kg/injection, schedule: Q01DX009 (ip), vehicle: other 107 % of control | dose: 50.0 mg/kg/injection, schedule: Q01DX009 (ip), vehicle: saline + Tween-80 + alcohol 100 % of control | dose: 100.0 mg/kg/injection, schedule: Q01DX009 (ip), vehicle: saline + Tween-80 + alcohol 104 % of control and 114 % of control | dose: 200.0 mg/kg/injection, schedule: Q01DX009 (ip), vehicle: saline + Tween-80 + alcohol 106 % of control

Cc1cc(C(C(N)=O)c2ccccc2)ccc1N(CCCl)CCCl (stereo not drawn)
active: dose: 9.37 mg/kg/injection, schedule: Q01DX009 (ip), vehicle: other 168 % of control | dose: 18.75 mg/kg/injection, schedule: Q01DX009 (ip), vehicle: other 195 % of control | dose: 25.0 mg/kg/injection, schedule: Q04DX003 (ip), vehicle: Klucel (hydroxypropylcellulose) (HPC) 184 % of control | dose: 50.0 mg/kg/injection, schedule: Q04DX003 (ip), vehicle: Klucel (hydroxypropylcellulose) (HPC) 176 % of control
inactive: dose: 100.0 mg/kg/injection, schedule: Q04DX003 (ip), vehicle: Klucel (hydroxypropylcellulose) (HPC) 97 % of control

CCCCCCCCCCCC(=O)NC1CC(O[C@H]2C[C@](O)(C(C)=O)Cc3c(O)c4c(c(O)c32)C(=O)c2c(OC)cccc2C4=O)OC(C)C1O (stereo partly drawn)
active: dose: 6.0 mg/kg/injection, schedule: Q01DX009 (ip), vehicle: other 150 % of control | dose: 12.0 mg/kg/injection, schedule: Q01DX009 (ip), vehicle: other 158 % of control
inactive: dose: 0.75 mg/kg/injection, schedule: Q01DX009 (ip), vehicle: other 119 % of control | dose: 2.0 mg/kg/injection, schedule: Q04DX003 (ip), vehicle: other 91 % of control | dose: 4.0 mg/kg/injection, schedule: Q04DX003 (ip), vehicle: other 107 % of control | dose: 8.0 mg/kg/injection, schedule: Q04DX003 (ip), vehicle: other 98 % of control | dose: 16.0 mg/kg/injection, schedule: Q04DX003 (ip), vehicle: other 102 % of control and 111 % of control | dose: 32.0 mg/kg/injection, schedule: Q04DX003 (ip), vehicle: other 114 % of control and 120 % of control | dose: 64.0 mg/kg/injection, schedule: Q04DX003 (ip), vehicle: other 120 % of control | dose: 128.0 mg/kg/injection, schedule: Q04DX003 (ip), vehicle: other 123 % of control | dose: 256.0 mg/kg/injection, schedule: Q04DX003 (ip), vehicle: other 100 % of control

CC1(C)OC(=O)N=C1c1ccccc1Cl
inactive: dose: 60.0 mg/kg/injection, schedule: Q01DX005 (ip), vehicle: Klucel (hydroxypropylcellulose) (HPC) 108 % of control | dose: 120.0 mg/kg/injection, schedule: Q01DX005 (ip), vehicle: Klucel (hydroxypropylcellulose) (HPC) 104 % of control | dose: 240.0 mg/kg/injection, schedule: Q01DX005 (ip), vehicle: Klucel (hydroxypropylcellulose) (HPC) 108 % of control

CC[N+](C)(CC)C/C(C)=C(/c1ccccc1S(=O)(=O)N(C)C)C(C)C[N+](C)(CC)CC (stereo not drawn)
inactive: dose: 12.5 mg/kg/injection, schedule: Q04DX003 (ip), vehicle: saline 102 % of control | dose: 25.0 mg/kg/injection, schedule: Q04DX003 (ip), vehicle: saline 103 % of control

O=C(/C=C\c1cc2[nH]c1c(-c1ccccc1)c1nc(c(-c3ccccc3)c3ccc([nH]3)c(-c3ccccc3)c3nc(c2-c2ccccc2)C=C3)C=C1)NCCCn1ccnc1
inactive: dose: 50.0 mg/kg/injection, schedule: Q01DX001 (ip), vehicle: Klucel (hydroxypropylcellulose) (HPC) 100 % of control | dose: 100.0 mg/kg/injection, schedule: Q01DX001 (ip), vehicle: Klucel (hydroxypropylcellulose) (HPC) 94 % of control | dose: 200.0 mg/kg/injection, schedule: Q01DX001 (ip), vehicle: Klucel (hydroxypropylcellulose) (HPC) 93 % of control | dose: 400.0 mg/kg/injection, schedule: Q01DX001 (ip), vehicle: Klucel (hydroxypropylcellulose) (HPC) 96 % of control

COC(=O)c1cc(Nc2ccccc2)c2ncccc2c1O
inactive: [1] 92 % of control | dose: 120.0 mg/kg/injection, schedule: Q01DX005 (ip), vehicle: saline with Tween-80 98 % of control | [2] 98 % of control

CCn1c(=O)[nH]c(=O)c2conc21
inactive: [3] 95 % of control | [4] 104 % of control | [5] 96 % of control

O/N=C\c1ccccc1P(c1ccccc1)c1ccccc1/C=N\O
inactive: [6] 93 % of control | [7] 92 % of control | [8] 90 % of control

CN=C(N)N/N=C(\C)c1ccc2c(c1)Cc1cc(/C(C)=N/NC(N)=NC)ccc1-2
inactive: dose: 0.78 mg/kg/injection, schedule: Q04DX002 (ip), vehicle: saline with Tween-80 124 % of control | dose: 12.5 mg/kg/injection, schedule: Q04DX002 (ip), vehicle: saline with Tween-80 123 % of control
active: dose: 6.25 mg/kg/injection, schedule: Q04DX002 (ip), vehicle: saline with Tween-80 154 % of control

CCN(CC)C(=O)c1ccc[n+](CCC(N)=O)c1
inactive: dose: 100.0 mg/kg/injection, schedule: Q04DX003 (ip), vehicle: saline 90 % of control | dose: 200.0 mg/kg/injection, schedule: Q04DX003 (ip), vehicle: saline 100 % of control | dose: 400.0 mg/kg/injection, schedule: Q04DX003 (ip), vehicle: saline 100 % of control

CC12CCC/C(=N\NC(N)=S)C1C(=O)NC(=O)C2 (stereo not drawn)
inactive: [6] 99 % of control | [7] 96 % of control | [8] 97 % of control

CCCCCCCCCCCCCCOCCS(=O)(=O)O
inactive: [1] 86 % of control | [2] 100 % of control

COc1cc(O)c(/C=N/Nc2ccc3ccccc3n2)c(OC)c1
inactive: dose: 100.0 mg/kg/injection, schedule: Q01DX001 (ip), vehicle: saline with Tween-80 91 % of control | dose: 200.0 mg/kg/injection, schedule: Q01DX001 (ip), vehicle: saline with Tween-80 104 % of control | dose: 400.0 mg/kg/injection, schedule: Q01DX001 (ip), vehicle: saline with Tween-80 89 % of control

C=C1C(=O)OC(C)(C)C1c1ccc(Cl)c(Cl)c1 (stereo not drawn)
inactive: dose: 50.0 mg/kg/injection, schedule: Q01DX009 (ip), vehicle: Klucel (hydroxypropylcellulose) (HPC) 93 % of control | dose: 100.0 mg/kg/injection, schedule: Q01DX009 (ip), vehicle: Klucel (hydroxypropylcellulose) (HPC) 92 % of control | dose: 200.0 mg/kg/injection, schedule: Q01DX009 (ip), vehicle: Klucel (hydroxypropylcellulose) (HPC) 97 % of control

CCOC1OCN(C(C)(C)C)CC1(C)C (stereo not drawn)
inactive: [3] 104 % of control | [4] 120 % of control

CC(C)(C)c1cc(C/C=C/c2ccccc2)c(O)c(C(C)(C)C)c1
inactive: dose: 2.5 mg/kg/injection, schedule: Q01DX009 (ip), vehicle: saline with Tween-80 90 % of control | dose: 5.0 mg/kg/injection, schedule: Q01DX009 (ip), vehicle: saline with Tween-80 99 % of control | dose: 10.0 mg/kg/injection, schedule: Q01DX009 (ip), vehicle: saline with Tween-80 96 % of control

NNP(=O)(NN)C(Cl)(Cl)Cl
inactive: [9] 101 % of control | [10] 100 % of control | [11] 108 % of control and 114 % of control

O=C(O)c1ccc(N=CC2CO2)cc1 (stereo not drawn)
inactive: [4] 99 % of control | [5] 102 % of control | dose: 200.0 mg/kg/injection, schedule: Q01DX009 (ip), vehicle: saline with Tween-80 87 % of control

CCOC(=O)C1CCC(=O)C(CC)=C1C (stereo not drawn)
inactive: [6] 103 % of control | [7] 103 % of control | [8] 107 % of control

Cc1ccc2c(ccc(/C=C/c3ccc(O)c4ncccc34)[n+]2C)c1
inactive: dose: 12.5 mg/kg/injection, schedule: Q01DX009 (ip), vehicle: saline with Tween-80 116 % of control | [3] 105 % of control

CC(CN(C)C)C(/C=C/c1ccccc1)=N\Nc1ccccc1 (stereo not drawn)
inactive: [9] 98 % of control | [10] 103 % of control | [11] 99 % of control and 107 % of control

COc1cccnc1/C=N/NC(N)=S
inactive: dose: 3.13 mg/kg/injection, schedule: Q01DX009 (ip), vehicle: saline with Tween-80 124 % of control
